Data on two compounds can be found in patent US20250353863A1, “TRICYCLIC SPIROLACTAM COMPOUNDS WITH ANTIMYCOBACTERIAL ACTIVITY” (priority 2022, published 2025).

For one experiment, the system named is M. smegmatis. As to the kind of experiment: MIC analysis of non-Mtb mycobacteria. The note with it: Mycolicibacterium smegmatis, 48 h; 2 days incubation. Type of experiment: cell-based.
For the next experiment, the system named is BCG. Nature of the experiment: microbe, parasite or virus in culture. It is filed as cell-based. The note with it: Mycobacterium tuberculosis variant bovis BCG, read-out: MIC BCG.
The subject of the next experiment is M. marinum. Nature of the experiment: MIC analysis of non-Mtb mycobacteria. Type of experiment: cell-based. The note with it: Mycobacterium marinum, 120 h; 5 days, 30° C., visual inspection.
For another experiment, the system named is Mtb H37Rv-WT. As to the kind of experiment: MIC by resazurin microtiter assay (REMA) against Mtb. The note with it: Mycobacterium tuberculosis, REMA, read-out: MIC M. tuberculosis. It is filed as cell-based.
A further experiment deals with M. abscessus S. As to the kind of experiment: MIC analysis of non-Mtb mycobacteria. It is filed as cell-based, Mycobacterium abscessus. The note with it: Mycobacteroides abscessus, 48 h; 2 days incubation.
A further experiment relates to M. abscessus R. As to the kind of experiment: MIC analysis of non-Mtb mycobacteria. It is filed as cell-based, Mycobacterium abscessus. To be noted: Mycobacteroides abscessus, 48 h; 2 days incubation.
The target of experiment [1] is NdhA-M. tb (recombinant MBP-NdhA) (Mycobacterium tuberculosis (strain ATCC 25618 / H37Rv), UniProt P95200). As to the kind of experiment: Biochemical evaluation of MBP-NdhA inhibition (NADH oxidation with menadione).
Sequence of NdhA-M. tb (recombinant MBP-NdhA) (P95200 whole entry, looked up): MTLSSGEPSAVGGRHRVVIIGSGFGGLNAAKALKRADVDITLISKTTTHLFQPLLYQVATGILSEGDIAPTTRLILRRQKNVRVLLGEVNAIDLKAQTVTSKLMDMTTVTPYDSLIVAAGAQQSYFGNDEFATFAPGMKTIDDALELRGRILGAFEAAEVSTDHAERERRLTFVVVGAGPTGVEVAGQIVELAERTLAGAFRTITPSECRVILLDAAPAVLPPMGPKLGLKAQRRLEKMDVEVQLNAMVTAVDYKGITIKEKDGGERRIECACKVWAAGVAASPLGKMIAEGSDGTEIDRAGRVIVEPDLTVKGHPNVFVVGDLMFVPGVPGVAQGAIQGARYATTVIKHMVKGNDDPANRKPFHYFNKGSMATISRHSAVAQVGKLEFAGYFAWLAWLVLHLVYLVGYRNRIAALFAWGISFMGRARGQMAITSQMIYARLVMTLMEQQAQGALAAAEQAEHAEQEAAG
Another experiment deals with M. avium. As to the kind of experiment: MIC analysis of non-Mtb mycobacteria. It is filed as cell-based. To be noted: Mycobacterium avium, 120 h; 5 days incubation.

Values after ≈ are worked out from the molar mass of the structure shown. Some results are limits rather than exact numbers.

A word on the IC50: it is the concentration that inhibits the measured activity by half. `CC(C)[C@H]1CO[C@]23CCN(Cc4ccc(C(F)(F)F)cc4)C[C@H]2CCC(=O)N13` [Example 2, (3S,7aR,11aR)-3-isopropyl-9-[[4-(trifluoromethyl)phenyl]methyl]-2,3,6,7,7a,8,10,11-octahydrooxazolo[2,3-j][1,6]naphthyridin-5-one]: the MIC is 1 to 10 µM (≈ 0.396 to 3.96 µg/mL) against M. smegmatis; 1 to 10 µM (≈ 0.396 to 3.96 µg/mL) in the experiment with BCG; less than 1 µM in the experiment on M. marinum; less than 1 µM with Mtb H37Rv-WT; 1 to 10 µM (≈ 0.396 to 3.96 µg/mL) in the experiment on M. abscessus S; 1 to 10 µM (≈ 0.396 to 3.96 µg/mL) with M. abscessus R. For the same compound, the MIC in the experiment on M. avium is less than 1 µM. In addition, the IC50 in experiment [1] is less than 100 nM.

Turning to `CC(C)[C@H]1CO[C@]23CCN(Cc4ccc(OC(F)(F)F)cc4)C[C@H]2CCC(=O)N13` [Example 3, (3S,7aR,11aR)-3-isopropyl-9-[[4-(trifluoromethoxy)phenyl]methyl]-2,3,6,7,7a,8,10,11-octahyooxazolo[2,3-j][1,6]naphthyridin-5-one], the MIC in the experiment with M. smegmatis was 1 to 10 µM (≈ 0.412 to 4.12 µg/mL); in the experiment on BCG, 1 to 10 µM (≈ 0.412 to 4.12 µg/mL); in the experiment with M. marinum it was less than 1 µM; in the experiment on Mtb H37Rv-WT, less than 1 µM; in the experiment with M. abscessus S it was 1 to 10 µM (≈ 0.412 to 4.12 µg/mL); with M. abscessus R, 1 to 10 µM (≈ 0.412 to 4.12 µg/mL). The compound also registered an MIC against M. avium of less than 1 µM. The IC50 in experiment [1] was less than 100 nM.
